Source: paper PMC3654088 (Cell metabolism, 2013)

Target: T1, Tam41 (Saccharomyces cerevisiae, UniProt P53230)
T1 sequence (P53230 27-385): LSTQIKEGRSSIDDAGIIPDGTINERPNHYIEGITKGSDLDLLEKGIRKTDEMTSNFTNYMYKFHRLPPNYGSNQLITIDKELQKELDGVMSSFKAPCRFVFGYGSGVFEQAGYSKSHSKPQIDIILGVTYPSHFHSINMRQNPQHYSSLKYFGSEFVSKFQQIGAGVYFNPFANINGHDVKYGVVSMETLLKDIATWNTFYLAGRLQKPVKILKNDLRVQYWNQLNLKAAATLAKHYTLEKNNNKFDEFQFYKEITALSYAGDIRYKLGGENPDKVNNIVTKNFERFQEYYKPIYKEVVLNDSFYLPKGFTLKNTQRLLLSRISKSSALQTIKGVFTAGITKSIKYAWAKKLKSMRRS
Assay: CDP-DAG formation, TLC with fluorescence imaging
Type: biochemical
Details: 2 mM CTP; 2 mM MgCl2; Tris-HCl pH 7.5; 0.2% Triton X-100; 30 °C; 10 min; labelled compound

NBD-PA
Km: 67 ± 10 µM
